Measurements from patent publication US7964628B2, “Fibrinogen receptor antagonists and their use” (Piramal Life Sciences Limited, priority 2003, dated 2011).
Where a name gives a salt, the structure may show the parent alone.

melting point	Compound
185 to 186 °C	CCOC(=O)COc1ccc(C(=O)CN2Cc3cc(C(=N)N)ccc3C2=O)cc1SCC (as salt: salt) (hydrate or solvate) [Example 33, (4-{2-[5-Carbamimidoyl-1-oxo-1,3-dihydro-isoindol-2-yl]-acetyl}-2-ethylsulfanyl-phenoxy)-acetic acid ethyl ester]
174 to 175 °C	CCOC(=O)COc1ccc(C(=O)CN2Cc3cc(C(=N)N)ccc3C2=O)cc1S(=O)(=O)CC (as salt: salt) (hydrate or solvate) [Example 35, (4-{2-[5-Carbamimidoyl-1-oxo-1,3-dihydro-isoindol-2-yl]-acetyl}-2-ethanesulfonyl-phenoxy)-acetic acid ethyl ester]
186 to 188 °C	CCOC(=O)COc1ccc(C(=O)CN2Cc3cc(C(=N)N)ccc3C2=O)c(OCC(=O)OCC)c1 (as salt: salt) (hydrate or solvate) [Example 47, (4-{2-[5-Carbamimidoyl-1-oxo-1,3-dihydro-isoindol-2-yl]-acetyl}-3-ethoxycarbonylmethoxy-phenoxy)-acetic acid ethyl ester]
181 to 182 °C	COC(=O)COc1ccc(C(=O)CN2Cc3cc(C(=N)N)ccc3C2=O)cc1 (as salt: salt) [Example 1, (4-{2-[5-Carbamimidoyl-1-oxo-1,3-dihydro-isoindol-2-yl]-acetyl}-phenoxy)-acetic acid methyl ester]
194 to 195 °C	CCN(CC)C(=O)COc1ccc(C(=O)CN2Cc3cc(C(=N)N)ccc3C2=O)cc1 (as salt: salt) [Example 25, 2-(4-{2-[5-Carbamimidoyl-1-oxo-1,3-dihydro-isoindol-2-yl]-acetyl}-phenoxy)-N,N-diethyl-acetamide]
172 to 173 °C	CCOC(=O)COc1ccc(C(=O)CN2Cc3cc(C(=N)N)ccc3C2=O)cc1Cl (as salt: salt) [Example 30, (4-{2-[5-Carbamimidoyl-1-oxo-1,3-dihydro-isoindol-2-yl]-acetyl}-2-chloro-phenoxy)-acetic acid ethyl ester]
195 to 196 °C	CCOC(=O)COc1ccc(C(=O)CN2Cc3cc(C(=N)N)ccc3C2=O)c(O)c1 (as salt: salt) [Example 41, (4-{2-[5-Carbamimidoyl-1-oxo-1,3-dihydro-isoindol-2-yl]-acetyl}-3-hydroxy-phenoxy)-acetic acid ethyl ester]
175 to 178 °C	CCOC(=O)COc1ccc(C(=O)CN2Cc3cc(C(=N)NO)ccc3C2=O)cc1 (hydrate or solvate) [Example 4, (4-{2-[5-(N-Hydroxycarbamimidoyl)-1-oxo-1,3-dihydro-isoindol-2-yl]-acetyl}-phenoxy)-acetic acid ethyl ester]
162 °C	CC(C)OC(=O)COc1ccc(C(=O)CN2Cc3cc(C(=N)N)ccc3C2=O)cc1 (hydrate or solvate) [Example 5, (4-{2-[5-Carbamimidoyl-1-oxo-1,3-dihydro-isoindol-2-yl]-acetyl}-phenoxy)-acetic acid isopropyl ester]
190 to 191 °C	CCOC(=O)COc1ccc(C(=O)CN2Cc3cc(C(=N)NO)ccc3C2=O)cc1SCC (hydrate or solvate) [Example 34, (2-Ethylsulfanyl-4-{2-[5-(N-hydroxycarbamimidoyl)-1-oxo-1,3-dihydro-isoindol-2-yl]-acetyl}-phenoxy)-acetic acid ethyl ester]

The remaining lines, values behind:

Compound	melting point
N=C(N)c1ccc2c(c1)CN(CC(=O)c1ccc(OCC(=O)O)cc1)C2=O (as salt: hydrochloride) (hydrate or solvate) [Example 17, (4-{2-[5-Carbamimidoyl-1-oxo-1,3-dihydro-isoindol-2-yl]-acetyl}-phenoxy)-acetic acid]	> 250 °C (dec.)
N=C(N)c1ccc2c(c1)CN(CC(=O)N1CCC(OCC(=O)O)CC1)C2=O (as salt: hydrochloride) (hydrate or solvate) [Example 73, (1-{2-[5-Carbamimidoyl-1-oxo-1,3-dihydro-isoindol-2-yl]-acetyl}-piperidin-4-yloxy)-acetic acid]	135 to 136 °C
CC(C)COC(=O)COc1ccc(C(=O)CN2Cc3cc(C(=N)N)ccc3C2=O)cc1OCC(=O)OCC(C)C (as salt: hydroiodid) [Example 24, (4-{2-[5-Carbamimidoyl-1-oxo-1,3-dihydro-isoindol-2-yl]-acetyl}-2-isobutoxycarbonylmethoxy-phenoxy)acetic acid isobutyl ester]	95 to 96 °C
CCOC(=O)COc1ccc(C(=O)CN2Cc3cc(NC(C)=N)ccc3C2=O)c(O)c1 (as salt: iodide) (hydrate or solvate) [Example 74, (4-{2-[5-Acetimidoylamino-1-oxo-1,3-dihydro-isoindol-2-yl]-acetyl}-3-hydroxy-phenoxy)-acetic acid ethyl ester]	196 to 197 °C
N=C(N)c1ccc2c(c1)CN(CC(=O)c1ccc(OCC(=O)OCc3ccccc3)cc1)C2=O (as salt: salt) (hydrate or solvate) [Example 16, (4-{2-[5-Carbamimidoyl-1-oxo-1,3-dihydro-isoindol-2-yl]-acetyl}-phenoxy)-acetic acid benzyl ester]	190 °C (dec.)
CCOC(=O)COc1ccc(C(=O)CN2Cc3cc(C(=N)N)ccc3C2=O)cc1OCC(=O)OCC (as salt: salt) (hydrate or solvate) [Example 20, (4-{2-[5-Carbamimidoyl-1-oxo-1,3-dihydro-isoindol-2-yl]-acetyl}-2-ethoxycarbonylmethoxy-phenoxy)-acetic acid ethyl ester]	168 to 169 °C
CCOC(=O)COC1CCN(C(=O)CN2Cc3cc(C(=N)N)ccc3C2=O)CC1 (as salt: salt) (hydrate or solvate) [Example 71, (1-{2-[5-Carbamimidoyl-1-oxo-1,3-dihydro-isoindol-2-yl]-acetyl}-piperidin-4-yloxy)-acetic acid ethyl ester]	189 to 190 °C
CCOC(=O)C(CCNC(=O)OCc1ccccc1)Oc1ccc(C(=O)CN2Cc3cc(C(=N)N)ccc3C2=O)cc1 (centres unmarked) (as salt: salt) [Example 27, 4-Benzyloxycarbonylamino-2-(4-{2-[5-carbamimidoyl-1-oxo-1,3-dihydro-isoindol-2-yl]-acetyl}-phenoxy)-butyric acid ethyl ester]	164 to 165 °C
CCOC(=O)CN1CCN(C(=O)CN2Cc3cc(C(=N)N)ccc3C2=O)CC1 (as salt: salt) [Example 66, (4-{2-[5-Carbamimidoyl-1-oxo-1,3-dihydro-isoindol-2-yl]-acetyl}-piperazine-1-yl)-acetic acid ethyl ester]	211 to 212 °C
N=C(N)c1ccc2c(c1)CN(CC(=O)c1ccc(OCC(=O)O)cc1O)C2=O (as salt: trifluoroacetate) [Example 44, (4-{2-[5-Carbamimidoyl-1-oxo-1,3-dihydro-isoindol-2-yl]-acetyl}-3-hydroxy-phenoxy)-acetic acid]	262 °C (dec.)
CCCc1c(OCC(=O)O)ccc(C(=O)CN2Cc3cc(C(=N)N)ccc3C2=O)c1O (as salt: trifluoroacetic acid salt) [Example 60, (4-{2-[5-Carbamimidoyl-1-oxo-1,3-dihydro-isoindol-2-yl]-acetyl}-3-hydroxy-2-propyl-phenoxy)-acetic acid]	222 to 223 °C
COC(=O)COc1ccc(C(=O)CN2Cc3cc(C(=N)NO)ccc3C2=O)cc1 (hydrate or solvate) [Example 2, (4-{2-[5-(N-Hydroxycarbamimidoyl)-1-oxo-1,3-dihydro-isoindol-2-yl]-acetyl}-phenoxy)-acetic acid methyl ester]	175 to 176 °C
CC(C)COC(=O)NC(=N)c1ccc2c(c1)CN(CC(=O)c1ccc(OCC(=O)OC(C)C)cc1)C2=O (hydrate or solvate) [Example 7, (4-{2-[5-(Imino-isobutoxycarbonylamino-methyl)-1-oxo-1,3-dihydro-isoindol-2-yl]-acetyl}-phenoxy)-acetic acid isopropyl ester]	155 to 157 °C
CC(C)OC(=O)COc1ccc(C(=O)CN2Cc3cc(C(=N)NC(=O)OCc4ccccc4)ccc3C2=O)cc1 (hydrate or solvate) [Example 8, (4-{2-[5-(Benzyloxycarbonylamino-imino-methyl)-1-oxo-1,3-dihydro-isoindol-2-yl]-acetyl}-phenoxy)-acetic acid isopropyl ester]	156 to 158 °C
CC(C)OC(=O)COc1ccc(C(=O)CN2Cc3cc(C(=N)NO)ccc3C2=O)cc1 (hydrate or solvate) [Example 9, (4-{2-[5-(N-Hydroxycarbamimidoyl)-1-oxo-1,3-dihydro-isoindol-2-yl]-acetyl}-phenoxy)-acetic acid isopropyl ester]	164 to 166 °C
CC(C)COC(=O)COc1ccc(C(=O)CN2Cc3cc(C(=N)NC(=O)OCC(C)C)ccc3C2=O)cc1 (hydrate or solvate) [Example 12, (4-{2-[5-(Imino-isobutoxycarbonylamino-methyl)-1-oxo-1,3-dihydro-isoindol-2-yl]-acetyl}-phenoxy)-acetic acid isobutyl ester]	140 to 141 °C
COC(=O)NC(=N)c1ccc2c(c1)CN(CC(=O)c1ccc(OCC(=O)OCc3ccccc3)cc1)C2=O (hydrate or solvate) [Example 18, (4-{2-[5-(Imino-methoxycarbonylamino-methyl)-1-oxo-1,3-dihydro-isoindol-2-yl]-acetyl}-phenoxy)-acetic acid benzyl ester]	184 to 186 °C
CC(C)COC(=O)NC(=N)c1ccc2c(c1)CN(CC(=O)c1ccc(OCC(=O)OCc3ccccc3)cc1)C2=O (hydrate or solvate) [Example 19, (4-{2-[5-(Imino-isobutoxycarbonylamino-methyl)-1-oxo-1,3-dihydro-isoindol-2-yl]-acetyl}-phenoxy)-acetic acid benzyl ester]	162 to 163 °C
N=C(N)c1ccc2c(c1)CN(CC(=O)c1ccc(OCC(=O)OC3CCN(C(=O)OCc4ccccc4)CC3)cc1)C2=O (hydrate or solvate) [Example 26, 4-(2-{4-[2-(5-Carbamimidoyl-1-oxo-1,3-dihydro-isoindol-2-yl)-acetyl]-phenoxy}-acetoxy)-piperidine-1-carboxylic acid benzyl ester]	180 to 181 °C
